Test results: BindingDB's records for patent US20240190892 (Merck Sharp & Dohme, 2024)

Assays:
Plasma kallikrein = Plasma kallikrein (Homo sapiens, UniProt P03952); experiment: Plasma Kallikrein Assay
Experimental: (§1) The effectiveness of a compound of the present invention as an inhibitor of plasma kallikrein can be determined using a relevant purified serine protease, and an appropriate synthetic substrate. The rate of hydrolysis of the chromogenic or fluorogenic substrate by the relevant serine protease was measured both in the absence and presence of compounds of the present invention. Assays were conducted at rt or at 37° C. […] A decrease in the rate of fluorescence change in the presence of inhibitor is indicative of enzyme inhibition. Such methods are known to one skilled in the art. The results of this assay are expressed as the half-maximal inhibitory concentrations (IC50), or the inhibitory constant, Ki.

Coagulation factor XI = Coagulation factor XI (Homo sapiens, UniProt P03951); experiment: Factor XIa Assay
Coagulation factor XI, sequence (P03951 19-387 limits assumed): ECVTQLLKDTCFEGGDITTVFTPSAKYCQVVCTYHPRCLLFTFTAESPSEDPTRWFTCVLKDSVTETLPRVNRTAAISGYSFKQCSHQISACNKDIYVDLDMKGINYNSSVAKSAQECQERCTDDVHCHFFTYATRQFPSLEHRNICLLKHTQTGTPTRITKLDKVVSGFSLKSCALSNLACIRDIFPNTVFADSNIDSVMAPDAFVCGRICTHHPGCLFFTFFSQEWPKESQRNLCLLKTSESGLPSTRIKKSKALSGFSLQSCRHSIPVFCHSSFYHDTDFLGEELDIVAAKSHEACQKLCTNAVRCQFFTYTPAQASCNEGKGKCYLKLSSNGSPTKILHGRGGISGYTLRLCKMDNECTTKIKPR
Coagulation factor XI, sequence (P03951 388-625 limits assumed): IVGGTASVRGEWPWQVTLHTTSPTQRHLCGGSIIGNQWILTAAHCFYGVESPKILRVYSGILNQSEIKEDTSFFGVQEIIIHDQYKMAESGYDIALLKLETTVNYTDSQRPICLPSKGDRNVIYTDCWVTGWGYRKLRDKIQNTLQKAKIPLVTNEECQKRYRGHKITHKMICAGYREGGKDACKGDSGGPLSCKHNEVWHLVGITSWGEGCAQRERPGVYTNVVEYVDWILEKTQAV
Experimental: as §1, with “Coagulation factor XIa” for “plasma kallikrein”

Plasma kallikrein, sequence (P03952 20-390 limits assumed): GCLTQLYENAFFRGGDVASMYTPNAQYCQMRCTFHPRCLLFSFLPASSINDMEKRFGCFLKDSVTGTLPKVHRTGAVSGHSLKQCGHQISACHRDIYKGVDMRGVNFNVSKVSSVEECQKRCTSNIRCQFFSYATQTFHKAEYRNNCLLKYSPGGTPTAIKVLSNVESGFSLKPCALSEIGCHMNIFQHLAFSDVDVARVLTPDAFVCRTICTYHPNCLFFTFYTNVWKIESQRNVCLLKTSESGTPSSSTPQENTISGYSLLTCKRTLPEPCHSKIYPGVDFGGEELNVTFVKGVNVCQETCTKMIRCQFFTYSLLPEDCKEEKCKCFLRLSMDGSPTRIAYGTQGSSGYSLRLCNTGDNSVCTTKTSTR
Plasma kallikrein, sequence (P03952 391-638 limits assumed): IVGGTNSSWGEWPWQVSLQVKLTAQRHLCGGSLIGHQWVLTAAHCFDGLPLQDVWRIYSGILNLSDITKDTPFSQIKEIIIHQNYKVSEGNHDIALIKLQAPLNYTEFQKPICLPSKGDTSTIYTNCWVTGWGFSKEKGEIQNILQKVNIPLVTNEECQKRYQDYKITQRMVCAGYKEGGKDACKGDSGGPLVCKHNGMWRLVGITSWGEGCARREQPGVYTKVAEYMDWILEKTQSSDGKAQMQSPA

CC1(O)CN(c2ccc(CNC(=O)c3cncc(N4CC[C@]5(C4)OC(=O)Nc4ccc(Cl)c(F)c45)n3)cn2)C1 [US20240190892, Example 35]
IC50 (Plasma kallikrein): 0.0284 µM | IC50 (Coagulation factor XI): ≥ 10 µM
